Source: article PMC12610161, “Structural Engineering of Tyrosine-Based Neuroprotective Peptides: A New Strategy for Efficient Blood–Brain Barrier Penetration” (Foods, 2025)
Where “and” joins values, the source holds several entries; their conditions need not be identical. Equal entries are not always repeated. Where two headings read alike, the source gives them in different places. Ends that are not written are not given here.

Key:
[1] = DPPH radical scavenging activity; settings: substrate concentration 1 mg/mL (printed for EV peptides); 30 min, 517 nm
Method: A modified DPPH scavenging assay was conducted following the method described by Shen et al.. 0.0023 g of DPPH was mixed with 100 mL of 95% absolute ethanol to prepare a 60 µmol/L DPPH radical working solution. The sample was then mixed with 60 µmol/L DPPH free radical working solution at a 1:1 (v/v) ratio, mixed thoroughly, and allowed to stand in the dark for 30 min. The mixture was then centrifuged at 4500 rpm for 10 min. The absorbance was measured at a wavelength of 517 nm and compared with an equivalent concentration of GSH. The DPPH radical scavenging rate was calculated using the following formula:(1) DPPH radical scavenging ratio % = 1−Aa−Ab/Ac×100% where Aa represents the absorbance value of EV, TW and YV peptides solution added to DPPH scavenging radical working solution; Ab denotes the absorbance value of the solution with 95% (v/v) absolute ethanol and the […] scavenging radical working solution; Ac is the absorbance value after mixing distilled water and DPPH in equal volumes of 1:1.

[2] = ABTS radical scavenging activity; settings: 1 mg/mL; 6 min, 734 nm
Method: ABTS scavenging radical determination was conducted following the procedure of Li et al. with slight modifications. A 7 mmol/L aqueous solution of ABTS and a 2.49 mmol/L aqueous solution of potassium persulfate were mixed in a 1:1 ratio. The mixture was allowed to stand in the dark at 4 °C for 12–16 h. The concentration was adjusted using 5 mmol/L PBS (pH 7.4) to ensure that the absorbance of the ABTS radical stock solution was 0.700 ± 0.002 at a wavelength of 734 nm. EV and TW peptide aqueous solutions (10 µL), each at a concentration of 1 mg/mL, were taken. A glutathione aqueous solution with the same substrate concentration was used as the control group. After adding the samples to a black 96-well plate, 190 µL of ABTS free radical working solution was added to each well. The absorbance at 734 nm was measured using a microplate reader after a 6 min reaction.
The ABTS clearance was calculated as follows:(2) ABTS radical scavenging rate % = 1−Aa−Ab/Ac×100% where Aa represents the sample; Ab represents the absorbance of the solution in which the ABTS working solution was substituted with 5 mmol/L PBS; Ac represents the absorbance of the blank group.

[3] = Oxygen radical absorbance capacity (ORAC) assay; settings: substrate concentration 1 mg/mL (printed for EV peptides)
Method: ORAC assay was performed based on the technique of Simon et al., with minor modifications. First, in black 96-well plates, 25 µL of PBS buffer (75 mmol/L, pH 7.4), 25 µL of Trolox standard solutions (at concentrations of 6.25 µM, 12.5 µM, 25 µM, 50 µM), and the peptide solution were added at a 1:1 volume ratio. Then, the samples were incubated at 37 °C for 10 min. Subsequently, 150 µL of […] sodium fluorescein was added to all wells and incubated at 37 °C for 20 min. Following this, 25 µL of 6 mmol/L azobisisobutyramidine hydrochloride (AAPH) solution was quickly added to each well. Two control groups were established: one consisted of a black 96-well plate with free radicals (+AAPH), while the other group included a black 96-well plate without free radicals (−AAPH). Both plates were placed in a microplate reader and shaken for 5 s. The excitation wavelength was set to 485 ± 20 nm, and the emission wavelength was set to 530 ± 10 nm. The entire system was set at 37 °C, and the fluorescence intensity was measured every 2 min. […]
The measurement results were expressed as ORAC values using the following formula:ORAC value = [(AUCpeptide − AUCblank)/(AUtrolox − AUCblank)] × Ctrolox/Cpeptide(4) […]

[4] = Transwell in vitro BBB model, apparent permeability; format: in vitro ADME; settings: mouse, 100 µM in upper chamber, bEnd.3 monolayer, RP-HPLC of lower chamber
Method: The method described by Han et al. was referenced and modified. Briefly, 500 µL of bEnd.3 cells at a density of 5 × 10^4 cells/mL were seeded in the upper chamber of Transwell (0.4 µm, 12-well, PET material), and 1.5 mL of DMEM was added to the lower chamber to ensure the upper and lower chambers were aligned. After cell adherence, the culture medium in the upper chamber was changed daily, while the culture medium in the lower chamber was changed every other day. Once the transendothelial electrical resistance (TEER) was > 200 Ω·cm^2, both the upper and lower chambers were replaced with serum-free DMEM. After 12 h, EV and TW peptides, solubilized in HBSS at a concentration of 100 µM, were added to the upper chamber. After 4 h, the samples were collected separately, and RP-HPLC detection, along with Origin 2021 mapping analysis, was performed. TEER and apparent permeability coefficient (Papp) were calculated as follows:TEER = (TEERsample − TEERcontrol) × Cell Culture Area(5) (6) Papp=∆C·V/∆t·C0·A(cm/s) where ΔC represents the concentration in the lower chamber (µM), V is the volume of the lower chamber (mL), Δt indicates the experimental time (s), C0 is the initial concentration in the upper chamber, and A is the membrane area of the Transwell (cm^2).

[5] = system: HT22 cells; format: cell-based; settings: mouse, 24 h, 100 µM
Method: Mouse brain microvascular endothelial cells (bEnd.3) and mouse hippocampal neuron cells (HT22) were purchased from Zhong Qiao Xin Zhou Biological Technology Ltd. (Shanghai, China). Cells were cultured in DMEM (Cat # 11965092, Gibco, New York, USA) supplemented with 1% (v/v) penicillin/streptomycin (MA0110, MeilunBio, Dalian, China) and 10% (v/v) fetal bovine serum (C04001-500, Vivacell, Shanghai, China) in a 5% CO2 humidified incubator at 37 °C, and passaged every 2 days. When cell confluence reached 85–90%, cells were seeded into 6/12 well plates at a density of 1 × 10^5 cells/mL. Once the confluence reached 85–90% again, the cells were cultured in H2O2 medium at varying concentrations for 2 h as a model group. Cell viability was assessed using MTT at 0.1 mg/mL, and the optimal H2O2 concentration was determined when the cell viability approached 50%.
When cell confluence reached 80–90%, they were incubated with 100 µM EV peptides and TW peptides, respectively, for 24 h, followed by injury with 800 µM H2O2 for 2 h to observe the protective effect of the peptides. Among them, the model group was directly injured after 24 h of incubation with DMEM.

[6] = in vivo; settings: C57/BJ, mouse, po
Method: Six C57/BJ mice were randomly selected, and the peptides [sequence] and [sequence] were administered via gavage, respectively. After 10 h, the mice were euthanized by cervical dislocation, and the brains were harvested. For analysis, 3 mL of normal saline was added to each gram of brain tissue, which was then homogenized. The sample was diluted in a ratio of 1:3 with methanol solution, mixed thoroughly, and centrifuged at 12,000 rpm for 10 min. The resulting supernatant was collected for RP-HPLC analysis.
(§1) Gradient elution was conducted with a mobile phase consisting of pure water with 0.1% TFA (mobile phase A) and acetonitrile containing 0.1% TFA (mobile phase B). […] This was performed for 25 min at a flow rate of 1 mL/min.

[7] = in vitro
Method: Walnut peptides were dissolved in distilled water to prepare a 100 µM aqueous solution. The pH was adjusted to 2.0, and pepsin was added to simulate gastric juice digestion. After 1 and 2 h in a 37 °C water bath, 1 mL of the sample was taken and stored at 4 °C for subsequent use. The pH of the remaining solution was then adjusted to 7.0, and 5 mg/mL trypsin was added to simulate intestinal digestion. After 1 and 2 h in a 37 °C water bath, 1 mL samples were taken, filtered through a 0.22 µm pore size membrane, and analyzed via RP-HPLC.
as §1

[8] = in vitro; settings: KM, mouse, plasma; for half-life at 166.7 µM: In vitro plasma half-life
Method: The plasma half-life was evaluated utilizing KM mice (20 ± 2 g) obtained from Changsheng Biotechnology Co., Ltd. (Benxi, Liaoning, China). After the adaptation period, the mice were euthanized by cervical dislocation. Blood was collected from the heart and immediately transferred into an EP tube containing heparin sodium. After standing for 2 h, the plasma was separated by centrifugation at 4500 rpm at 4 °C for 15 min. A 500 µL aliquot of 500 µM peptide solution was added to 1 mL of blank plasma, mixed thoroughly by vortexing, and methanol was added in a 1:3 ratio. After vortexing for 1 min, the mixture was centrifuged at 12,000 rpm for 10 min, and the resulting supernatant was collected for RP-HPLC analysis.
Gradient elution was conducted with a mobile phase consisting of pure water with 0.1% TFA (mobile phase A) and acetonitrile containing 0.1% TFA (mobile phase B). The elution process for mobile phase B was as follows: [sequence]: 10−35%, [sequence]: 8−33%, [sequence]: 5−30%, [sequence]: 4−29%, TWLPLPR: 24−49%, TWLPYPR: 21−46%, TWLPRPR: 16−41%, TWLPKPR: 15−40%, YVPFPLP, YVPFPYP: 11–34%. This was performed for 25 min at a flow rate of 1 mL/min.

[9] = system: in vitro BBB model; settings: cited from earlier work
[10] = parameters: method as in PMID 22934681; settings: cited from earlier work
[11] = parameters: method as in PMID 29463072; settings: cited from earlier work

## N[C@@H](CCC(=O)N[C@@H](CS)C(=O)NCC(=O)O)C(=O)O [GSH, glutathione]
[1]
  DPPH radical scavenging rate: 70.98 ± 1.09% and 70 ± 1.09%
[2]
  ABTS radical scavenging rate: 73.20 ± 2.54%
[3]
  ORAC value: 1003.3 ± 18.6 µmol TE/g

## EVSGPGKSPN [EVSGPGKSPN]
[4]
  Papp A→B at 4 h, 100 µM: 1.36 ×10⁻⁶ cm/s

## EVSGPGLSPN [EVSGPGLSPN]
[4]
  Papp at 4 h, 100 µM: 3.78 ×10⁻⁶ cm/s
[5]
  Cell viability (MTT): 78.63 ± 0.86%
[6]
  tissue level at time at 10 h: 250 ± 110 ng/g
[7]
  recovery at 100 µM: 19.5 ± 3.33%
[8]
  metabolised at 48 h, 167 µM: 2.23%
  remaining at 1 h, 167 µM: 99.75 ± 0.35%
  remaining at 2 h, 167 µM: 99 ± 0.75%
  remaining at 4 h, 167 µM: 98.13 ± 0.06%
  remaining at 8 h, 167 µM: 97.86 ± 0.49%
  remaining at 12 h, 167 µM: 96.86 ± 0.5%
  remaining at 24 h, 167 µM: 95.62 ± 0.64%
  remaining at 36 h, 167 µM: 94.96 ± 0.36%
  remaining at 48 h, 167 µM: 94.77 ± 0.64%
  half-life at 166.7 µM: > 48 h

## EVSGPGYSPN [EVSGPGYSPN]
[4]
  Papp at 4 h, 100 µM: 8.1 ×10⁻⁶ cm/s
[5]
  Cell viability (MTT): 86.88 ± 3.18%
[6]
  tissue level at time at 10 h: 1250 ± 910 ng/g
[7]
  recovery at 100 µM: 13.99 ± 0.02%
[8]
  remaining at 1 h, 167 µM: 96.64 ± 0.53%
  remaining at 2 h, 167 µM: 92.42 ± 0.74%
  remaining at 4 h, 167 µM: 80.5 ± 0.65%
  remaining at 8 h, 167 µM: 58.64 ± 0.52%
  remaining at 12 h, 167 µM: 51 ± 0.64%
  remaining at 24 h, 167 µM: 24.3 ± 1.94%
  remaining at 36 h, 167 µM: 0%
  remaining at 48 h, 167 µM: 0%
  half-life at 166.7 µM: > 12 h

## Gly-Sar
[9]
  Apparent permeability: 7.60 ± 1.29 µL/g/min

## H-Tyr-D-Ala-Gly-MePhe-Gly-ol
[10]; embedded and delivered with GSH-PEG liposomes
  Plasma half-life: 6.9 ± 2.3 h
[10]; free peptide
  Plasma half-life: 0.153 ± 0.035 h

## TWLPKPR [TWLPKPR]
[4]
  Papp A→B at 4 h, 100 µM: 3.45 ×10⁻⁶ cm/s

## TWLPLPR [TWLPLPR]
[4]
  Papp A→B at 4 h, 100 µM: 6.85 ×10⁻⁶ cm/s

## TWLPYPR [TWLPYPR]
[4]
  Papp A→B at 4 h, 100 µM: 7.06 ×10⁻⁶ cm/s

## YVPFPLP [YVPFPLP]
[4]
  Papp A→B at 4 h, 100 µM: 0.999 ×10⁻⁶ cm/s

## YVPFPYP [YVPFPYP]
[4]
  Papp at 4 h, 100 µM: 3.62 ×10⁻⁶ cm/s

## eveltivir
[11]
  Maximum concentration in the brain: 46.5 ± 3.5 ng/g
